Test results published in ChEMBL document CHEMBL5291721, “A preclinical secondary pharmacology resource illuminates target-adverse drug reaction associations of marketed drugs” (Nat Commun, 2023).

Tests used:
[1] = molecular target: Adenosine receptor A2a (Homo sapiens, UniProt P29274)
[2] = molecular target: T1, Adenosine receptor A3 (Homo sapiens, UniProt P0DMS8)
T1 sequence (P0DMS8 whole entry): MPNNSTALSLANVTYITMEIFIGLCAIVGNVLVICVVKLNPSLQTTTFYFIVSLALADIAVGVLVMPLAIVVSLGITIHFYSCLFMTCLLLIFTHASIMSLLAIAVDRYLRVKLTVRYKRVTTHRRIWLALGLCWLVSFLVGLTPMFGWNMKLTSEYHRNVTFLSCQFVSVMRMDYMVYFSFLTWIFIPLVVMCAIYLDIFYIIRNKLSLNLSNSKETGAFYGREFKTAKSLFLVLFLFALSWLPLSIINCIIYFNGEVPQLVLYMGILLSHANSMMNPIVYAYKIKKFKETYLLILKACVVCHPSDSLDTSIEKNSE

[3] = molecular target: T2, Alpha-2A adrenergic receptor (Homo sapiens, UniProt P08913); type: functional, cell-based
T2 sequence (P08913 whole entry): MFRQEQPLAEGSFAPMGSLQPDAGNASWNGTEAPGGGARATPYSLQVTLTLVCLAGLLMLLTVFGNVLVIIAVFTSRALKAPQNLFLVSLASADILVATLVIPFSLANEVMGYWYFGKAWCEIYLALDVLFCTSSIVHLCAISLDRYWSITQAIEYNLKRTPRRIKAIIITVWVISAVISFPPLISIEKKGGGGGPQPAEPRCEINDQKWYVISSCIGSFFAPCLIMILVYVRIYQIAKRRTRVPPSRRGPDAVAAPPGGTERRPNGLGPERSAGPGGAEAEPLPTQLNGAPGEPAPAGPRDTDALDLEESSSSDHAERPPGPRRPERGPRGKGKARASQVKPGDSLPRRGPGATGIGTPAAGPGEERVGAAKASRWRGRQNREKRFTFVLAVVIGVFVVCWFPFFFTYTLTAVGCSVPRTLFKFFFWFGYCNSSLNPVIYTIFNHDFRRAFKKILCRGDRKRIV

[4] = molecular target: T3, Type-1 angiotensin II receptor (Homo sapiens, UniProt P30556)
T3 sequence (P30556 whole entry): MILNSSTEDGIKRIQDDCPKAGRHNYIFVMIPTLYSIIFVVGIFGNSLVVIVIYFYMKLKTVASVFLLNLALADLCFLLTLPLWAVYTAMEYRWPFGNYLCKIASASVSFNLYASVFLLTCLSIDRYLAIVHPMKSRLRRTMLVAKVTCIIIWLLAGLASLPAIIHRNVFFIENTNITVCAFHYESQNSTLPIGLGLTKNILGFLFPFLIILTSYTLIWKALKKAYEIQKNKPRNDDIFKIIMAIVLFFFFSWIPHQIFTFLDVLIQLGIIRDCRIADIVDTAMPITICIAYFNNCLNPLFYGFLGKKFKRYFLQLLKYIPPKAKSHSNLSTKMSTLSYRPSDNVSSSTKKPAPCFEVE

[5] = molecular target: T4, Muscarinic acetylcholine receptor M2 (Homo sapiens, UniProt P08172); type: functional, cell-based
T4 sequence (P08172 whole entry): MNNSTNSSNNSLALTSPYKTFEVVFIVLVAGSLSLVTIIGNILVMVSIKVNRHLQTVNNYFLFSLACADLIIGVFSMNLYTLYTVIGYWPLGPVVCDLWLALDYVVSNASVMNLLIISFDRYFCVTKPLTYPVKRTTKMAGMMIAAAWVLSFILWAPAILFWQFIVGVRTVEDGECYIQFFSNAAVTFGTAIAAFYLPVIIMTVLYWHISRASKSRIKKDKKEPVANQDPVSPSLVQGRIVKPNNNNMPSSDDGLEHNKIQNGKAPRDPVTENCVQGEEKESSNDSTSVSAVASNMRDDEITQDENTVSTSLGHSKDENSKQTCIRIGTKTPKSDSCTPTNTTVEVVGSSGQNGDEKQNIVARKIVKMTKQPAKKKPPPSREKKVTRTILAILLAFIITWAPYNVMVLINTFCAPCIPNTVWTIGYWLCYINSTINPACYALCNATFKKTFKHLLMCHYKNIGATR

[6] = molecular target: Neuronal acetylcholine receptor subunit alpha-4 (Homo sapiens, UniProt P43681)
Chain of Neuronal acetylcholine receptor subunit alpha-4 (P43681 whole entry): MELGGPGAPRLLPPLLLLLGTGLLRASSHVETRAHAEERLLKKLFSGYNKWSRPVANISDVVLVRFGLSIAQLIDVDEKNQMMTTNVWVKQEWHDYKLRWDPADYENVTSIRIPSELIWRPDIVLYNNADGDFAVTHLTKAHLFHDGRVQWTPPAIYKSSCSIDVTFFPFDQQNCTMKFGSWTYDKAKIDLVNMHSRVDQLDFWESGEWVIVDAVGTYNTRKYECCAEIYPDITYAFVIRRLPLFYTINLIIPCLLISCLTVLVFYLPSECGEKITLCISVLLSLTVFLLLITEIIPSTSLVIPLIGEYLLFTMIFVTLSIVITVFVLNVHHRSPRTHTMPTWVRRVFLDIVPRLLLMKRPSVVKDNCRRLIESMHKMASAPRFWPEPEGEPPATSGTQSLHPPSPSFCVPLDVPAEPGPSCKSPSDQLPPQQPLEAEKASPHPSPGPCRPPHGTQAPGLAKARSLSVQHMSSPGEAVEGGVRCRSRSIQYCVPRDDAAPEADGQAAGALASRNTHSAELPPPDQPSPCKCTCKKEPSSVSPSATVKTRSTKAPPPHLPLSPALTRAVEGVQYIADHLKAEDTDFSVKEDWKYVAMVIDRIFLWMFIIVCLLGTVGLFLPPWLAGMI

[7] = molecular target: Growth hormone secretagogue receptor type 1 (Homo sapiens, UniProt Q92847)
Chain of Growth hormone secretagogue receptor type 1 (Q92847 whole entry): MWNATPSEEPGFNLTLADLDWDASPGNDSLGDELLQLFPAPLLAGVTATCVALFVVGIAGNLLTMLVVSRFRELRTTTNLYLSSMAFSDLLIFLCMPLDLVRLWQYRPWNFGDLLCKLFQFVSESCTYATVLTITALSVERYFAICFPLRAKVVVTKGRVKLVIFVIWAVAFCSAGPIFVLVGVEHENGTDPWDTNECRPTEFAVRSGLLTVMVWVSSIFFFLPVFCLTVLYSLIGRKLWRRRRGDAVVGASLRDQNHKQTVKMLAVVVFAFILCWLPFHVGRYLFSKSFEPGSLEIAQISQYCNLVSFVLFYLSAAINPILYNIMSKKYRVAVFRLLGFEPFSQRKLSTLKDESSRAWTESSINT

[8] = molecular target: T5, 5-hydroxytryptamine receptor 1A (Homo sapiens, UniProt P08908); type: functional, cell-based
T5 sequence (P08908 whole entry): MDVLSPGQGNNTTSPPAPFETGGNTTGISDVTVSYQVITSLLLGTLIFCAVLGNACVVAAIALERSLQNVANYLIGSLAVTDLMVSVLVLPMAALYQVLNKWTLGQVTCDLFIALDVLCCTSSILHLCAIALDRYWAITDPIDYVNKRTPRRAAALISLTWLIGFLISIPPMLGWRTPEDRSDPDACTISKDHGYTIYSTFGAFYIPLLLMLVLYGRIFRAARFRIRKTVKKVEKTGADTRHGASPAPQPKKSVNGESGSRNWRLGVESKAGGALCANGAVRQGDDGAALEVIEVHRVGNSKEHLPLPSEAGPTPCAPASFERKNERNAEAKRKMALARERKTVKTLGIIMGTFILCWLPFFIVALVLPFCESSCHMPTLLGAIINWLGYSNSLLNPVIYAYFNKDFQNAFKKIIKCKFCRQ

[9] = molecular target: T6, 5-hydroxytryptamine receptor 3A (Homo sapiens, UniProt P46098); type: functional
T6 sequence (P46098 whole entry): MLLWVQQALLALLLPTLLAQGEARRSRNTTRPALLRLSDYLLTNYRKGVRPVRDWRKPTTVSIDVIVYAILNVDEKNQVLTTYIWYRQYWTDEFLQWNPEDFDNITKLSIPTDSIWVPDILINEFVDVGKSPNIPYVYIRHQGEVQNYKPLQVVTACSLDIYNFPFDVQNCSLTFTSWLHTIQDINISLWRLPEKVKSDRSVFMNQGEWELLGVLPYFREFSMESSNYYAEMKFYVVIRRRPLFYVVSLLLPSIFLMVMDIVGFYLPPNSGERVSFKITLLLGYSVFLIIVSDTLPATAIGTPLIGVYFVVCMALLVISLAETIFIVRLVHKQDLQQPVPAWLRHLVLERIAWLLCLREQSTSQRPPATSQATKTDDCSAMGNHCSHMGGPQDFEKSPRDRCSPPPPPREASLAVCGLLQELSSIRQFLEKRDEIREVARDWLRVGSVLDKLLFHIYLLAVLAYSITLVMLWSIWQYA

[10] = molecular target: Melanocortin receptor 3 (Homo sapiens, UniProt P41968)
Chain of Melanocortin receptor 3 (P41968 whole entry): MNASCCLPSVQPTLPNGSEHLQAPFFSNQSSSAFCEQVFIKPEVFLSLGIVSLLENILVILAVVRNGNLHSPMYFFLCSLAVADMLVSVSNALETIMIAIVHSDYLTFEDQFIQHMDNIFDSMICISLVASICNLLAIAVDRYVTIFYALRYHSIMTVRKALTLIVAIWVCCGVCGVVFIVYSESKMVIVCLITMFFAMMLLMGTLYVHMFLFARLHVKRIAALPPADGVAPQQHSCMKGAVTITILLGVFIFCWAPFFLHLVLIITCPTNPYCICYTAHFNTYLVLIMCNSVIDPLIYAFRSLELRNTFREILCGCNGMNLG

[11] = molecular target: Delta-type opioid receptor (Homo sapiens, UniProt P41143)
Chain of Delta-type opioid receptor (P41143 whole entry): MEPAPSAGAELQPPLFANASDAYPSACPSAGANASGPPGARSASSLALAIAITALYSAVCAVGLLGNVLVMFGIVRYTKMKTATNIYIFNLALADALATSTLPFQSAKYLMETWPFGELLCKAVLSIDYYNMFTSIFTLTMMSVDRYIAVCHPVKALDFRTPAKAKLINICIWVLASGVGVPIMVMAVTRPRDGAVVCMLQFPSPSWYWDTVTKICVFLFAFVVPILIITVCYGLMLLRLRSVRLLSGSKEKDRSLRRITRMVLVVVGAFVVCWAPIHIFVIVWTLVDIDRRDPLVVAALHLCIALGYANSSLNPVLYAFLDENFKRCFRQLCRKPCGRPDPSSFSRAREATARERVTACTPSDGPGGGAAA

[12] = molecular target: Sodium-dependent dopamine transporter (Homo sapiens, UniProt Q01959)
Chain of Sodium-dependent dopamine transporter (Q01959 whole entry): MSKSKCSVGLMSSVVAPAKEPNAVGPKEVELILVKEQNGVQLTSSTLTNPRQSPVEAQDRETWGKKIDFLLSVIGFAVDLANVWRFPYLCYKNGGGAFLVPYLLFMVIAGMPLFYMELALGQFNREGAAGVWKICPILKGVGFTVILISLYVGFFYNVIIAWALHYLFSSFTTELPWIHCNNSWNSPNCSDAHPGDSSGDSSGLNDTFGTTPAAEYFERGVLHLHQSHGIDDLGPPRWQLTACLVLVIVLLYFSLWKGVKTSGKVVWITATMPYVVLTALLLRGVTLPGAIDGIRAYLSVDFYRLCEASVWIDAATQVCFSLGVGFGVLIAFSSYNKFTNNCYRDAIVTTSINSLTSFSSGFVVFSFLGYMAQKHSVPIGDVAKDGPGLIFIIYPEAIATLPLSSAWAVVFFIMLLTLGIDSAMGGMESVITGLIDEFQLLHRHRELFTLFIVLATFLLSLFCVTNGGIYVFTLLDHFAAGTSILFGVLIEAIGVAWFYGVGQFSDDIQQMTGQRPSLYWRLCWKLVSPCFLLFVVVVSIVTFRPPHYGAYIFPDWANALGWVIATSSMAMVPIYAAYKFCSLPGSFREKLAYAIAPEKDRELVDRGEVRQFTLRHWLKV
Further: assay procedure not described here.

Chain of Adenosine receptor A2a (P29274 whole entry): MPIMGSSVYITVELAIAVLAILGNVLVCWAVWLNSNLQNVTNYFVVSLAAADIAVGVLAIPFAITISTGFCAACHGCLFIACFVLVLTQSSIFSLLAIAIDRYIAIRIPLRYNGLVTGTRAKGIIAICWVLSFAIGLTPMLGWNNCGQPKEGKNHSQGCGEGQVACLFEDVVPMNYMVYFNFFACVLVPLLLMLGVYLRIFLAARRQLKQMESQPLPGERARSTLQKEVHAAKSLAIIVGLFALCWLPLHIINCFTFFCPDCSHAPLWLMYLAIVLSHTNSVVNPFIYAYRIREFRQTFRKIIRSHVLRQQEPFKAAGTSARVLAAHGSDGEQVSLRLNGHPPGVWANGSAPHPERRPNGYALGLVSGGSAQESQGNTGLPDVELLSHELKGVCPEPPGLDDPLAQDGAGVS

Row | SMILES | AC50 [1] | AC50 [2] | AC50 [3] | AC50 [4] | AC50 [5] | AC50 [6] | AC50 [7] | AC50 [8] | AC50 [9] | AC50 [10] | AC50 [11] | AC50 [12]
1 | Clc1ccc2c(N3CCN(CCCN4CCN(c5ccnc6cc(Cl)ccc56)CC4)CC3)ccnc2c1 [PIPERAQUINE] | > 30 µM | > 30 µM | > 30 µM | > 30 µM | > 30 µM | > 30 µM | > 30 µM | > 30 µM | > 30 µM | > 30 µM | > 30 µM | > 30 µM
2 | CC12CC3CC(C)(C1)CC(N)(C3)C2 [MEMANTINE] | > 30 µM | > 30 µM | > 10 µM | > 30 µM | > 10 µM | > 10 µM | > 30 µM | > 10 µM | > 30 µM | > 30 µM | > 30 µM | > 30 µM
3 | Clc1ccc(C(Cn2ccnc2)OCc2ccsc2Cl)c(Cl)c1 (stereo not given) [TIOCONAZOLE] | > 30 µM | 6.43 µM | > 30 µM | > 30 µM | > 30 µM | > 30 µM | 8.5 µM | > 30 µM | > 30 µM | > 30 µM | 3.2 µM | 10.6 µM
4 | CCOC(=O)C1=C[C@]2(CC)CCCN3CCc4c(n1c1ccccc41)[C@@H]32 [VINPOCETINE] | > 30 µM | > 30 µM | > 30 µM | > 30 µM | 13 µM | > 30 µM | > 30 µM | > 30 µM | > 30 µM | > 30 µM | > 30 µM | 21 µM
5 | CCC(=O)O[C@H]1CC[C@H]2[C@@H]3CCC4=CC(=O)CC[C@]4(C)[C@H]3CC[C@]12C [TESTOSTERONE PROPIONATE] | > 10 µM | > 10 µM | > 10 µM | > 10 µM | > 10 µM | > 10 µM | > 10 µM | > 10 µM | > 30 µM | > 10 µM | > 30 µM | > 10 µM
6 | CCCCC(=O)O[C@]1(C(=O)CO)[C@@H](C)C[C@H]2[C@@H]3CCC4=CC(=O)C=C[C@]4(C)[C@@]3(F)[C@@H](O)C[C@@]21C [BETAMETHASONE VALERATE] | > 30 µM | > 30 µM | > 10 µM | > 30 µM | > 10 µM | > 10 µM | > 30 µM | > 30 µM | > 30 µM | > 30 µM | > 30 µM | > 30 µM
7 | CC(N)C(O)c1ccccc1 (stereo not given) [PHENYLPROPANOLAMINE] | > 30 µM | > 30 µM | > 10 µM | > 30 µM | > 10 µM | > 10 µM | > 30 µM | > 10 µM | > 10 µM | > 30 µM | > 10 µM | > 30 µM
8 | CCC(C)C(CC)C(N)=O (stereo not given) [VALNOCTAMIDE] | > 30 µM | > 30 µM | > 30 µM | > 30 µM | > 30 µM | > 30 µM | > 30 µM | > 30 µM | > 30 µM | > 30 µM | > 30 µM | > 30 µM
9 | CC1(C)S[C@@H]2[C@H](NC(=O)[C@H](N)c3ccccc3)C(=O)N2[C@H]1C(=O)OCOC(=O)[C@@H]1N2C(=O)C[C@H]2S(=O)(=O)C1(C)C [SULTAMICILLIN] | > 30 µM | > 30 µM | > 30 µM | > 30 µM | > 30 µM | > 30 µM | > 30 µM | > 30 µM | > 30 µM | > 30 µM | > 30 µM | > 30 µM
10 | CCOC(=O)C1=C(C)NC(C)=C(C(=O)OC)C1c1cccc([N+](=O)[O-])c1 (stereo not given) [NITRENDIPINE] | > 30 µM | > 30 µM | > 10 µM | > 30 µM | > 10 µM | > 10 µM | > 30 µM | > 10 µM | > 30 µM | > 30 µM | > 30 µM | 32.2 µM
